Measured values from article PMC6406525, “A Biophysical Approach to the Identification of Novel ApoE Chemical Probes” (Biomolecules, 2019).

What was measured:
Format in all cases: binding
ApoE2 = target: T1, ApoE2 (Homo sapiens, UniProt P02649, R176C); assay: isothermal titration calorimetry (protein injected into compound)
T1 construct: gene APOE; His6-thioredoxin tag removed by HRV 3C protease; E. coli Rosetta2(DE3)
From the text: isothermal titration calorimetry (protein injected into compound) on ApoE2

ApoE4 [1] = target: T2, ApoE4 (Homo sapiens, UniProt P02649, C130R); assay: as above
T2 construct: gene APOE; full-length mature ApoE4, codon-optimized gene in pET17b; His6-thioredoxin tag removed by HRV 3C protease; E. coli Rosetta2(DE3)

ApoE3 = target: T3, ApoE3 (Homo sapiens, UniProt P02649); assay: as above
T3 construct: gene APOE; His6-thioredoxin tag removed by HRV 3C protease; E. coli Rosetta2(DE3)
From the text: isothermal titration calorimetry (protein injected into compound) on ApoE3

ApoE4 [2] = target: T2, ApoE4; assay: microscale thermophoresis (Red-NHS labelled ApoE4, initial fluorescence)
From the text: microscale thermophoresis (Red-NHS labelled ApoE4, initial fluorescence) on ApoE4

T2 sequence (P02649 19-317 C130R): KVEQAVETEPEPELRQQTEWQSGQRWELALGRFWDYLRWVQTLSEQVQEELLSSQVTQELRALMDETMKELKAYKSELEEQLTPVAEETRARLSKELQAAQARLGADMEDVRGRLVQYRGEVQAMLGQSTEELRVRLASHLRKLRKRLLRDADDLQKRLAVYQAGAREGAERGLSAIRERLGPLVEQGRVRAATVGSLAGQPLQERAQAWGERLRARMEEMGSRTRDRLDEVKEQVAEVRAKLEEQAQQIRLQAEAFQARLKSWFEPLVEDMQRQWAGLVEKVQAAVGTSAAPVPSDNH
T1 sequence (P02649 19-317 R176C): as the sequence (P02649 19-317 C130R) above, with R112C, R158C counted along it
T3 sequence (P02649 19-317): as the sequence (P02649 19-317 C130R) above, with R112C counted along it

With `CCN(CC)CCOc1ccc(C(=C(Cl)c2ccccc2)c2ccccc2)cc1` [Clomifene] the Kd (ApoE2) was 67 ± 36 µM, the Kd (ApoE4 [1]; read-out: ApoE4) was 15 ± 10 µM and the Kd (ApoE3) was 24 ± 9 µM.
`O=C(O)c1ccc2nc(-c3cc(Cl)cc(Cl)c3)oc2c1` [Tafamidis] gave a Kd (ApoE2) of 6 ± 2 µM, a Kd (ApoE4 [1]; read-out: ApoE4) of 8 ± 2 µM and a Kd (ApoE3) of 8 ± 1 µM.
`CN(C)CCOc1ccc(/C(=C(/CCCl)c2ccccc2)c2ccccc2)cc1` [Toremifene] was tested, and the Kd (ApoE4 [2]) was 44 ± 6 µM.
For `N[C@@H](Cc1cc(I)c(Oc2cc(I)c(O)c(I)c2)c(I)c1)C(=O)O` [L-Thyroxine], the Kd (ApoE2) was 33 ± 10 µM, the Kd (ApoE4 [1]; read-out: ApoE4) was 18 ± 12 µM and the Kd (ApoE3) was 20 ± 3 µM.
`Cc1ccc(C(=O)Nc2ccc(S(=O)(=O)O)c3cc(S(=O)(=O)O)cc(S(=O)(=O)O)c23)cc1NC(=O)c1cccc(NC(=O)Nc2cccc(C(=O)Nc3cc(C(=O)Nc4ccc(S(=O)(=O)O)c5cc(S(=O)(=O)O)cc(S(=O)(=O)O)c45)ccc3C)c2)c1` [Suramin] gave a Kd (ApoE4 [1]; read-out: binding affinity) of 3 ± 0.4 µM.
`Cc1ccc(Cl)c(Nc2ccccc2C(=O)O)c1Cl` [Meclofenamic acid] gave a Kd (ApoE2) of 47 ± 32 µM, a Kd (ApoE4 [1]; read-out: ApoE4) of 45 ± 13 µM and a Kd (ApoE3) of 47 ± 9 µM.
`CC/C(=C(\c1ccccc1)c1ccc(OCCN(C)C)cc1)c1ccccc1` [Tamoxifen] gave a Kd (ApoE4 [2]) of 67 ± 19 µM.
`O=C(O)c1cc2ccccc2c(Cc2c(O)c(C(=O)O)cc3ccccc23)c1O` [Pamoic acid] gave a Kd (ApoE2) of 55 ± 14 µM, a Kd (ApoE4 [1]; read-out: ApoE4) of 38 ± 4 µM and a Kd (ApoE3) of 119 ± 50 µM.
